Measurements: US20150299185A1, “NOVEL IMIDAZOPYRIDINE DERIVATIVES AS A TYROSINE KINASE INHIBITOR” (HANMI PHARM. CO., LTD., priority 2011, published 2015)
pIC50: −log10 of the molar value.

How the values were obtained:
BTK = molecular target: T1, BTK (Homo sapiens, UniProt Q06187); experiment: BTK inhibitory activity, Z-Lyte Kinase Assay Kit; format: biochemical; settings: 60 minutes at room temperature, BTK enzyme (Invitrogen PV3190)
T1 construct: purchased Invitrogen PV3190
Experimental: (§1) Evaluation of JAK3 and BTK Inhibitory Activity
(§2) The compounds prepared in Examples 1 to 20 were tested for JAK3 and BTK inhibitory activity. Kinase inhibitory activity was measured by using Z-Lyte Kinase Assay Kit (Invitrogen), and JAK3 and BTK enzymes were purchased from Invitrogen (PV3855, PV3190).
(§3) Specifically, the compounds of Examples 1 to 20 were diluted with a 4% aqueous solution of DMSO to obtain solutions with concentrations in the range of 1˜0.0001 μM. Each kinase was diluted to 1˜10 ng/assay, and ATP was diluted to form a kinase buffer (50 mM HEPES, pH 7.4; 10 mM MgCl2; 1 mM EGTA; 0.01% BRIJ-35) by calculating an approximate Kd value. The assays were performed in 384-well polystyrene flat-bottomed plates. 5 μL of the diluted solution of the compound, peptide substrate having a suitable concentration, 10 μL of mixed kinase solution and 5 μL of ATP solution having a concentration of 5 to 300 μM were added to the sample, and allowed to react in a mixer for 60 minutes at room temperature. After 60 minutes, 10 μL of fluorescent labeling reagents was added to each mixture so as to allow fluorescent labeling of peptide substrates, followed by adding a finishing solution to complete the reaction. The fluorescence level was measured using a Molecular Device with an excitation filter at 400 nm, and an emission filter at 520 nm. The kinase inhibitory activities of the compounds were calculated in phosphorylation rates between 0˜100% against the control group (staurosporine or each of kinase inhibitor) with reference to the protocol of the kit, and percentage inhibition was calculated and plotted against concentration (x-axis) to calculate 50% inhibitory concentration (IC50). The IC50 values were obtained by using Microsoft Excel, and the results are shown in Table 5, wherein A: IC50≦50 nM, B: IC50=50˜100 nM, C: IC50=100˜1,000 nM, and D: IC50≧1,000 nM.

JAK3 = molecular target: T2, JAK3 (Homo sapiens, UniProt P52333); experiment: JAK3 inhibitory activity, Z-Lyte Kinase Assay Kit; format: biochemical; settings: 60 minutes at room temperature, JAK3 enzyme (Invitrogen PV3855)
T2 construct: purchased Invitrogen PV3855
Experimental: as §1, §2, §3

T1 sequence (Q06187 whole entry): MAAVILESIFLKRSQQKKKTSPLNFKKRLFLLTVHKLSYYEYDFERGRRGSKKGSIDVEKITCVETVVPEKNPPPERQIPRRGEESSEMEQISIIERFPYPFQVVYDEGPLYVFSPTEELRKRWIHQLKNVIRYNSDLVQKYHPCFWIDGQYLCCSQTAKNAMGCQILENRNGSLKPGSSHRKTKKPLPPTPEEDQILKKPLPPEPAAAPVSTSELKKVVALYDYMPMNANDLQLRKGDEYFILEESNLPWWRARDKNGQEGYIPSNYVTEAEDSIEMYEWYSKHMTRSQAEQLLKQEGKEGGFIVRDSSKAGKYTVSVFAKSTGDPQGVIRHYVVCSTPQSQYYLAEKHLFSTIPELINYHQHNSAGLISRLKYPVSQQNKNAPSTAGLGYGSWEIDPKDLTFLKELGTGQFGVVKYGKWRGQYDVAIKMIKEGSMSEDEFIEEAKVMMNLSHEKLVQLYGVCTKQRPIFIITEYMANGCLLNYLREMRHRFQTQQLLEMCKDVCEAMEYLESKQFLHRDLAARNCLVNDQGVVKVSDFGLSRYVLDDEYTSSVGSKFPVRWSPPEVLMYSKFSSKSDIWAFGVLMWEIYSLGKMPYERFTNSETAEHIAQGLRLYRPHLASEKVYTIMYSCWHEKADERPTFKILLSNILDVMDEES
T2 sequence (P52333 781-1124 limits assumed): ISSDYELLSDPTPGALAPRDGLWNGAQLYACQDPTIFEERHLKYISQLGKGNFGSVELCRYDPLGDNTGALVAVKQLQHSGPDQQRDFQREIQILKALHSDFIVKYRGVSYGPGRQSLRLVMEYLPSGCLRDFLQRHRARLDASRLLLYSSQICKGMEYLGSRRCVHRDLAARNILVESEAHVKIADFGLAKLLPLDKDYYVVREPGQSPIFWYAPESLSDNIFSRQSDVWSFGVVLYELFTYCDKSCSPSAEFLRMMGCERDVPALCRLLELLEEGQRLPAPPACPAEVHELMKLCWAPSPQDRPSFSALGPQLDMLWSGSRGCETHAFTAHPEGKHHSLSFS

Row | pIC50 (BTK) | pIC50 (JAK3) | SMILES
1 | 6.00 to 7.00 | – | C=CC(=O)Nc1cccc(Oc2c(Cl)cnc3[nH]c(-c4ccc(OC)cc4)nc23)c1 [Example 18, N-(3-(6-chloro-2-(4-methoxyphenyl)-3H-imidazo[4,5-b]pyridin-7-yloxy)phenyl)acrylamide]
2 | 6.00 to 7.00 | 6.00 to 7.00 | C=CC(=O)Nc1cccc(Oc2ccnc3[nH]c(-c4ccc(N5CCN(C)CC5)cc4)nc23)c1 [Example 20, N-(3-(2-(4-(4-methylpiperazin-1-yl)phenyl)-3H-imidazo[4,5-b]pyridin-7-yloxy)phenyl)acrylamide]
3 | ≥ 7.30 | ≥ 7.30 | C=CC(=O)Nc1cccc(Oc2c(Cl)cnc3[nH]c(-c4ccc(CN(CC)CC)cc4)nc23)c1 [Example 13, N-(3-(6-chloro-2-(4-((diethylamino)methyl)phenyl)-3H-imidazo[4,5-b]pyridin-7-yloxy)phenyl)acrylamide]
4 | 6.00 to 7.00 | ≥ 7.30 | C=CC(=O)Nc1cccc(Oc2c(Cl)cnc3[nH]c(-c4ccncc4)nc23)c1 [Example 19, N-(3-(6-chloro-2-(pyridin-4-yl)-3H-imidazo[4,5-b]pyridin-7-yloxy)phenyl)acrylamide]
5 | ≥ 7.30 | ≥ 7.30 | C=CC(=O)Nc1cccc(Oc2c(Cl)cnc3[nH]c(-c4ccc(CN5CCCC5)cc4)nc23)c1 [Example 14, N-(3-(6-chloro-2-(4-(pyrroldin-1-ylmethyl)phenyl)-3H-imidazo[4,5-b]pyridin-7-yloxy)phenyl)acrylamide]
6 | ≥ 7.30 | ≥ 7.30 | C=CC(=O)Nc1cccc(Oc2c(Cl)cnc3[nH]c(-c4ccc(CN(C)CC)cc4)nc23)c1 [Example 12, N-(3-(6-chloro-2-(4-((ethyl(methyl)amino)methyl)phenyl)-3H-imidazo[4,5-b]pyridin-7-yloxy)phenyl)acrylamide]
7 | 7.00 to 7.30 | ≥ 7.30 | C=CC(=O)Nc1cccc(Oc2c(Cl)cnc3[nH]c(-c4ccc(CN5CCOCC5)cc4)nc23)c1 [Example 16, N-(3-(6-chloro-2-(4-(morpholinomethyl)phenyl)-3H-imidazo[4,5-b]pyridin-7-yloxy)phenyl)acrylamide]
8 | 7.00 to 7.30 | ≥ 7.30 | C=CC(=O)Nc1cccc(Oc2c(Cl)cnc3[nH]c(-c4ccc(CN5CCN(C)CC5)cc4)nc23)c1 [Example 17, N-(3-(6-chloro-2-(4-((4-methylpiperazin-1-yl)methyl)phenyl)-3H-imidazo[4,5-b]pyridin-7-yloxy)phenyl)acrylamide]
9 | ≥ 7.30 | ≥ 7.30 | C=CC(=O)Nc1cccc(Oc2c(Cl)cnc3[nH]c(-c4ccc(CN(C)C)cc4)nc23)c1 [Example 11, N-(3-(6-chloro-2-(4-((dimethylamino)methyl)phenyl)-3H-imidazo[4,5-b]pyridin-7-yloxy)phenyl)acrylamide]
10 | ≥ 7.30 | ≥ 7.30 | C=CC(=O)Nc1cccc(Oc2c(Cl)cnc3[nH]c(-c4ccc(CN5CCCCC5)cc4)nc23)c1 [Example 15, N-(3-(6-chloro-2-(4-(piperidin-1-ylmethyl)phenyl)-3H-imidazo[4,5-b]pyridin-7-yloxy)phenyl)acrylamide]

Further lines, the compound ahead of its results:

Row | SMILES | pIC50 (BTK) | pIC50 (JAK3)
11 | C=CC(=O)Nc1cccc(Oc2c(Cl)cnc3[nH]c(-c4ccc(N5CCN(C)CC5)cc4)nc23)c1 [Example 1, N-(3-(6-chloro-2-(4-(4-methylpiperazin-1-yl)phenyl)-3H-imidazo[4,5-b]pyridin-7-yloxy)phenyl)acrylamide] | ≥ 7.30 | 7.00 to 7.30
12 | C=CC(=O)Nc1cccc(Oc2c(Cl)cnc3[nH]c(-c4ccc(N5CCC(O)CC5)cc4)nc23)c1 [Example 2, N-(3-(6-chloro-2-(4-(4-hydroxypiperidin-1-yl)phenyl)-3H-imidazo[4,5-b]pyridin-7-yloxy)phenyl)acrylamide] | 7.00 to 7.30 | 6.00 to 7.00
13 | C=CC(=O)Nc1cccc(Oc2c(Cl)cnc3[nH]c(-c4ccc(C(=O)N5CCN(C)CC5)cc4)nc23)c1 [Example 3, N-(3-(6-chloro-2-(4-(4-methylpiperazin-1-carbonyl)phenyl)-3H-imidazo[4,5-b]pyridin-7-yloxy)phenyl)acrylamide] | ≥ 7.30 | 6.00 to 7.00
14 | C=CC(=O)Nc1cccc(Oc2c(Cl)cnc3[nH]c(-c4ccc(N(C)C)cc4)nc23)c1 [Example 6, N-(3-(6-chloro-2-(4-(dimethylamino)phenyl)-3H-imidazo[4,5-b]pyridin-7-yloxy)phenyl)acrylamide] | 6.00 to 7.00 | –
15 | C=CC(=O)Nc1cccc(Oc2c(Cl)cnc3[nH]c(-c4ccc([S+](C)[O-])cc4)nc23)c1 (stereo not shown) [Example 7, N-(3-(6-chloro-2-(4-(methylsulphinyl)phenyl)-3H-imidazo[4,5-b]pyridin-7-yloxy)phenyl)acrylamide] | ≥ 7.30 | –
16 | C=CC(=O)Nc1cccc(Oc2c(Cl)cnc3[nH]c(-c4ccc(C(=O)O)cc4)nc23)c1 [Example 9, 4-(7-(3-acrylamidophenoxy)-6-chloro-3H-imidazo[4,5-b]pyridin-2-yl)-benzoic acid] | 6.00 to 7.00 | –
17 | C=CC(=O)Nc1cccc(Oc2c(Cl)cnc3[nH]c(-c4ccc(NC5CCN(C)CC5)cc4)nc23)c1 [Example 5, N-(3-(6-chloro-2-(4-(1-methylpiperidin-4-ylamino)phenyl)-3H-imidazo[4,5-b]pyridin-7-yloxy)phenyl)acrylamide] | ≥ 7.30 | ≥ 7.30
18 | C=CC(=O)Nc1cccc(Oc2c(Cl)cnc3[nH]c(-c4ccc(C(=O)N(C)C)cc4)nc23)c1 [Example 8, 4-(7-(3-acrylamidophenoxy)-6-chloro-3H-imidazo[4,5-b]pyridin-2-yl)-N,N-dimethylbenzamide] | ≥ 7.30 | 7.00 to 7.30
19 | C=CC(=O)Nc1cccc(Oc2c(Cl)cnc3[nH]c(-c4ccc(C(=O)NC5CCN(C)CC5)cc4)nc23)c1 [Example 10, 4-(7-(3-acrylamidophenoxy)-6-chloro-3H-imidazo[4,5-b]pyridin-2-yl)-N-(1-methylpiperidin-4-yl)benzamide] | 7.00 to 7.30 | –
20 | C=CC(=O)Nc1cccc(Oc2c(Cl)cnc3[nH]c(-c4ccc(C(=O)N5CCOCC5)cc4)nc23)c1 [Example 4, N-(3-(6-chloro-2-(4-(morpholin-4-carbonyl)phenyl)-3H-imidazo[4,5-b]pyridin-7-yloxy)phenyl)acrylamide] | ≥ 7.30 | –
